The source of these data is ChEMBL document CHEMBL4823289, “Conformational-Analysis-Guided Discovery of 2,3-Disubstituted Pyridine IDO1 Inhibitors” (ACS Med Chem Lett, 2021).

pIC50: −log10 of the molar value.

A short description of data set [1]: AUC (0 to 24 hrs) in human SK-OV-3 cells xenografted in nu/nu mouse xenograft model measured in tumor at 60 mg/kg, po QD. The arrangement: time < 24 hr, route oral, dose 60 mg/kg. The class given is ADME, organism-based.
Data set [2] concerns the target Indoleamine 2,3-dioxygenase 1 (Mus musculus) (UniProt P28776). In words: In vivo inhibition of IDO1 in mouse xenografted with human SK-OV-3 cells assessed as reduction in tumor kynurenine AUEC at 60 mg/kg, po QD for 5 days measured up to 24 hrs after dosing relative to control. The class given is functional, organism-based. The arrangement: scale not given: the % may be the effect or the level left. The following applies: time 5.0 day.

Data set [3] is described as follows: Metabolic stability in mouse liver microsomes assessed as parent compound remaining at 0.5 uM after 10 mins incubation by LC-MS/MS analysis relative to control. The class given is ADME, Microsome. As to conditions: read-out: Activity.
The target of data set [4] is T1, Indoleamine 2,3-dioxygenase 1 (Homo sapiens, UniProt P14902). Briefly: Inhibition of IDO1 in IFNgamma-stimulated human HeLa cells preincubated for 2 hrs followed by recombinant human IFNgamma stimulation and measured after 18 hrs by fluorescence based microplate reader assay.
T1 sequence (P14902 whole entry): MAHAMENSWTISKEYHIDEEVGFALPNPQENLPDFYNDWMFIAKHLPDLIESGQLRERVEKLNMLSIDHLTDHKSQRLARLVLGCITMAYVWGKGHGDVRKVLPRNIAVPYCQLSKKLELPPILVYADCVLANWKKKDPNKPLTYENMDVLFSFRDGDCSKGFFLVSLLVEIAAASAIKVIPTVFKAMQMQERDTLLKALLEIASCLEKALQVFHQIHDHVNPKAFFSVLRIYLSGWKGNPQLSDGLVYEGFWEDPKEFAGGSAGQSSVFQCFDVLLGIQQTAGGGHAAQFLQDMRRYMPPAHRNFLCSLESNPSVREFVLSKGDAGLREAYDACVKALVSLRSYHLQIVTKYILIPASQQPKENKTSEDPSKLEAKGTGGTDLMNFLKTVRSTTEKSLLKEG
Data set [5] can be described thus: Metabolic stability in human liver microsomes assessed as parent compound remaining at 0.5 uM after 10 mins incubation by LC-MS/MS analysis relative to control. As to conditions: read-out: Activity. The class given is ADME, Microsome.
Data set [6] concerns the target Indoleamine 2,3-dioxygenase 1 (Mus musculus, UniProt P28776). In words: Inhibition of IDO1 in IFNgamma-stimulated mouse M109 cells preincubated for 2 hrs followed by recombinant murine IFNgamma stimulation and measured after 18 hrs by fluorescence based microplate reader assay. It counts as cell-based.
Data set [7] is described as follows: Protein binding in human assessed as free fraction relative to control. The class given is ADME.
Data set [8] is described as follows: Protein binding in mouse assessed as free fraction relative to control. The class given is ADME.
Data set [9] is described as follows: Metabolic stability in rat liver microsomes assessed as parent compound remaining at 0.5 uM after 10 mins incubation by LC-MS/MS analysis relative to control. The class given is ADME, Microsome. As to conditions: read-out: Activity.
Data set [10] concerns the target T1, Indoleamine 2,3-dioxygenase 1. Briefly: Inhibition of IDO1 in IFNgamma/LPS-stimulated human whole blood preincubated for 4 hrs followed by IFNgamma/LPS stimulation and incubated for 18 hrs by Rapid-fire mass spectrometry analysis. The class given is tissue-based.

Indoleamine 2,3-dioxygenase 1 (Mus musculus, UniProt P28776), sequence (P28776 whole entry): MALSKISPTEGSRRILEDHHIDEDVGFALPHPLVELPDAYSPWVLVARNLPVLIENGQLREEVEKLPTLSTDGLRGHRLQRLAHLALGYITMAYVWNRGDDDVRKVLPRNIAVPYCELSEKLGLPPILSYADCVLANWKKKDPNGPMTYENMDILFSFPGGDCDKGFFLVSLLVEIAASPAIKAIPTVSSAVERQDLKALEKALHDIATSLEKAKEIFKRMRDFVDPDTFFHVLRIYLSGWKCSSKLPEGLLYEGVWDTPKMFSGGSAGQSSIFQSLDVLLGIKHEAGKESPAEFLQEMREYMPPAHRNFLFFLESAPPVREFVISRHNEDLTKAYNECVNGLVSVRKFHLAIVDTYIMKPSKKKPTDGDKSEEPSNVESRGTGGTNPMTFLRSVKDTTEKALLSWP
Indoleamine 2,3-dioxygenase 1 (Mus musculus), sequence (P28776 whole entry, looked up): as the sequence (P28776 whole entry) above

Regarding `C[C@@H](C(=O)Nc1ccc(Cl)cc1)[C@H]1CC[C@@H](c2ccnc3ccc(F)cc32)CC1`, the AUC at 24 h in data set [1] stood at 18 µM·h. Moreover, the Activity in [2] was determined as 65%.

With `CC[C@@H](NC(=O)c1ccc(Cl)cc1)[C@H]1CC[C@H](c2ccc(OC(F)F)cc2)CC1`, the figures for the remaining at 10 min, 0.5 µM in data set [3] and in [5] were 90% and 94%, respectively. For the same compound, the values for the pIC50 in data set [4] and in [6] were 7.85 and 7.12, respectively.

As to `CC[C@@H](NC(=O)c1ccc(Cl)cc1)[C@H]1CC[C@H](c2cncc(OC)c2)CC1`, the remaining at 10 min, 0.5 µM turned out to be 28% in [3] and 80% in [5]. Also, the figures for the pIC50 in data set [4] and in data set [6] were 7.72 and 7.51, respectively.

Regarding `C[C@@H](NC(=O)c1ccc(Cl)cc1)[C@H]1CC[C@@H](c2ccnc3ccc(F)cc32)CC1`, the Activity in [7] is reported as less than 0.3%; in data set [8], less than 0.2%.

As for `CC[C@@H](NC(=O)c1ccc(Cl)cc1)[C@H]1CC[C@@H](c2ccnc(OC)c2F)CC1`, the figures for the remaining at 10 min, 0.5 µM in [9], in data set [3] and in [5] were 21%, 15% and 68%, respectively. The pIC50 in data set [4] is 8.52; in data set [10], 7.96; in data set [6], 7.66.

As to `CC[C@@H](NC(=O)c1ccc(Cl)cc1)[C@H]1CC[C@H](c2cccc(C(F)(F)F)n2)CC1`, the remaining at 10 min, 0.5 µM in data set [3] is 56%; in data set [5] it was 89%. Further, the pIC50 in [4] and in data set [6] was 7.40 each time.

In the case of `CC[C@@H](NC(=O)c1ccc(Cl)cc1)[C@H]1CC[C@H](c2nccc(OC)n2)CC1`, the results for the remaining at 10 min, 0.5 µM in data set [3] and in data set [5] were 42% and 20%, respectively. Further, the negative-log IC50 (pIC50) is 7.10 in data set [4] and 6.71 in data set [6].

As to `COC[C@@H](NC(=O)c1ccc(Cl)cc1)[C@H]1CC[C@@H](c2ccnc(OC)c2C(F)F)CC1`, the remaining at 10 min, 0.5 µM in [9] came out at 35%; in [3] it was 15%; in [5], 68%. Further, the values for the pIC50 in data set [4], in data set [10] and in data set [6] were 8.70, 8.39 and 7.96, respectively.

With `Cc1cc([C@H]2CC[C@@H]([C@@H](C)NC(=O)c3ccc(Cl)cc3)CC2)ccn1`, the remaining at 10 min, 0.5 µM in data set [3] and in [5] was 1% each time. The pIC50 in data set [4] is 7.92; in data set [6], 7.80.

In the case of `CC[C@@H](NC(=O)c1ccc(Cl)cc1)[C@H]1CC[C@@H](c2cccc3c2OC(F)(F)O3)CC1`, the remaining at 10 min, 0.5 µM in data set [3] and in data set [5] was 0% in each case. For the same compound, the pIC50 in data set [4] was 7.37; in data set [6], 6.71.

On to `CC[C@@H](NC(=O)c1ccc(Cl)cc1)[C@H]1CC[C@@H](c2cccnc2OC)CC1`, for which the remaining at 10 min, 0.5 µM in data set [3] came out at 1%; in data set [5], 3%. The values for the pIC50 in data set [4] and in data set [6] were 6.32 and less than 6.00, respectively.

Take `Cc1nccc([C@H]2CC[C@@H]([C@@H](C)NC(=O)c3ccc(Cl)cc3)CC2)c1C`: the remaining at 10 min, 0.5 µM in data set [3] worked out at 3%; in [5] it was 30%. Moreover, the pIC50 in data set [4] was 8.40; in data set [6], 8.22.

As for `Cc1c(F)nccc1[C@H]1CC[C@@H]([C@@H](C)NC(=O)c2ccc(Cl)cc2)CC1`, the remaining at 10 min, 0.5 µM in data set [9] was determined as 1%; in data set [3] it was 1%; in [5], 0%. Also, the pIC50 was 8.30 in data set [4], 7.33 in data set [10] and 8.52 in data set [6].

Take `CC[C@@H](NC(=O)c1ccc(Cl)cc1)[C@H]1CC[C@@H](c2ccnc(OC)c2C)CC1`: the remaining at 10 min, 0.5 µM in data set [9] is 34%; in [3], 15%; in [5], 71%. For the same compound, the results for the pIC50 in data set [4], in data set [10] and in data set [6] were 8.70, 8.55 and 8.15, respectively.

Take `CC[C@@H](NC(=O)c1ccc(Cl)cc1)[C@H]1CC[C@@H](c2ccnc(OC)c2C(F)F)CC1`: the values for the remaining at 10 min, 0.5 µM in [9], in data set [3] and in data set [5] were 57%, 30% and 85%, respectively. The pIC50 in data set [4] is 8.70; in [10] it was 8.36; in data set [6] it was 8.22.

Regarding `CC[C@@H](NC(=O)c1ccc(Cl)cc1)[C@H]1CC[C@H](c2cccc(=O)n2C)CC1`, the remaining at 10 min, 0.5 µM in data set [3] is 65%; in data set [5], 88%. The pIC50 in [4] was 7.59; in [6], 7.01.

Turning to `Cc1cnccc1[C@H]1CC[C@@H]([C@@H](C)NC(=O)c2ccc(Cl)cc2)CC1`, the remaining at 10 min, 0.5 µM in [3] came to 15%; in data set [5] it was 16%. In addition, the pIC50 in data set [4] is 8.15; in data set [6], 8.52.

For the compound `CC[C@@H](NC(=O)c1ccc(Cl)cc1)[C@H]1CC[C@H](c2cccc(C)n2)CC1`, the remaining at 10 min, 0.5 µM turned out to be 8% in data set [3] and 56% in data set [5]. The values for the pIC50 in data set [4] and in data set [6] were 7.32 and 6.92, respectively.
